According to patent publication US20250302795A1, “SMALL MOLECULE COMPOUNDS WITH NEGATIVE REGULATORY EFFECTS ON Nrf2 SIGNALING [sequence] AND THEIR POTENTIAL APPLICATIONS” (Beijing Hebabiz Biotechnology Co., Inc., priority 2022, published 2025):

Key:
[1] = tested on: rats with non-alcoholic steatohepatitis induced by high-fat diet; assay: Serum biochemical indices, non-alcoholic steatohepatitis model induced by high-fat diet; format: in vivo, rat; conditions: end of 8th week of administration, positive control group
Protocol: After establishing the model, the drug groups received their respective treatments at a dosage of 10 ml/kg while the normal and model groups received an equal volume of 0.5% CMC-Na solution. The rats were provided with ad libitum access to water and food, while the animal chamber was maintained under controlled conditions of quietness, natural lighting, a temperature of 25±0.5° C., and a humidity level of 55±5%. The rats' body weights were measured once per week and recorded.
At the end of the 8th week of administration, all rats were anesthetized with a 20% ulinastatin solution (10 ml/kg) via an intraperitoneal injection after the final administration. Subsequently, blood was collected from the abdominal aorta post-anesthesia. After standing for 1 hour, the blood was centrifuged at 4° C. and 3000 r/min for 15 minutes to obtain the upper serum fraction which was then stored at −80° C. Following the instructions provided by the biochemical index detection kit, levels of HDL-C, LDL-C, NEFA, AST, ALT, UA, TC, TG, FPG and FINS in rat serum were determined.

[2] = tested on: rats with nonalcoholic steatohepatitis induced by a high-fat diet and CCl4; assay: Serum biochemical indices, high-fat diet and CCl4 model; format: in vivo, rat; conditions: end of tenth week of administration, positive control group
Protocol: Starting from the seventh week, they received subcutaneous injections of a 30% CCl4 olive oil solution at a dosage of 0.2 ml/100 g behind their back twice per week for a total of four times. Once the model was successfully replicated, the corresponding drugs were administered orally (10 ml/kg) in each treatment group, and both the normal control group and the model group received equal volumes of a 0.5% CMC-Na solution once daily for ten consecutive weeks. Throughout the experimental period, the rats were provided with ad libitum access to food and water, while the animal chamber was maintained under controlled conditions of quietness, natural lighting, a temperature of 25±0.5° C., and a humidity level of 55±5%. The rats' body weights were measured once per week and recorded.
At the end of the tenth week of administration, all rats underwent a 16-hour fasting period following their final administration and were intraperitoneally injected with a 20% ulinastatin solution (10 ml/kg) for anesthesia. Subsequently, blood samples were collected from the abdominal aorta and allowed to stand for one hour, and then centrifuged at 4° C. for fifteen minutes at a speed of 3000 r/min. Finally, the upper serum was stored at −80° C. Following the instructions provided with the biochemical index detection kit, levels of HDL-C, LDL-C, NEFA, AST, ALT, UA, TC, TG, PCIII, IV-C LN and HA in rat serum were determined.
According to the kit instructions, the concentration of fasting plasma glucose (FPG) in serum was determined using colorimetry, while the concentration of fasting insulin (FINS) in serum was measured through radioimmunoassay.

Question: `COC(=O)c1cc(OC)c2c(c1-c1c(CO)cc(OC)c3c1OCO3)OCO2` [Bicyclol] was tested. Which HOMA-IR ([1]; FPG x FINS/22.5) did it give?
Answer: 1.04

Question: What about the ALT ([1]; serum) of the same compound?
Answer: 547.14 U/L

Question: And the AST ([1]; serum)?
Answer: 19.65 U/L

Question: What about the HDL-C ([1]; serum) of the same compound?
Answer: 1.34 mmol/L

Question: And the LDL-C ([1]; serum)?
Answer: 0.91 mmol/L

Question: What about the NEFA ([1]; serum) of the same compound?
Answer: 0.92 mmol/L

Question: What about the TC ([1]; serum) of the same compound?
Answer: 2.76 mmol/L

Question: And the TG ([1]; serum)?
Answer: 0.83 mmol/L

Question: And the UA ([1]; serum)?
Answer: 81.3 µmol/L

Question: What about the HOMA-IR ([2]; FPG x FINS/22.5) of the same compound?
Answer: 5.48

Question: And the ALT ([2]; serum)?
Answer: 44.39 U/L

Question: And the AST ([2]; serum)?
Answer: 66.96 U/L

Question: And the HDL-C ([2]; serum)?
Answer: 1.29 mmol/L

Question: What about the LDL-C ([2]; serum) of the same compound?
Answer: 0.90 mmol/L

Question: What about the NEFA ([2]; serum) of the same compound?
Answer: 0.77 mmol/L

Question: And the TC ([2]; serum)?
Answer: 1.85 mmol/L

Question: What about the TG ([2]; serum) of the same compound?
Answer: 0.63 mmol/L

Question: What about the UA ([2]; serum) of the same compound?
Answer: 126 µmol/L
